Source: ChEMBL document CHEMBL1127820 (J Med Chem, 1994)

Columns and labels:
[1] = target: Sodium-dependent dopamine transporter (Rattus norvegicus, UniProt P23977); assay: Inhibition of [3H]WIN-35428 binding to dopamine (DA) transporter
[2] = target: Norepinephrine transporter (Rattus norvegicus, UniProt Q9WTR4); assay: Inhibition of [3H]nisoxetine binding to norepinephrine (NE) transporter
[3] = target: Sodium-dependent serotonin transporter (Rattus norvegicus, UniProt P31652); assay: Inhibition of [3H]paroxetine binding to 5-hydroxytryptamine (5-HT) transporter
Chain of Sodium-dependent serotonin transporter (P31652 whole entry): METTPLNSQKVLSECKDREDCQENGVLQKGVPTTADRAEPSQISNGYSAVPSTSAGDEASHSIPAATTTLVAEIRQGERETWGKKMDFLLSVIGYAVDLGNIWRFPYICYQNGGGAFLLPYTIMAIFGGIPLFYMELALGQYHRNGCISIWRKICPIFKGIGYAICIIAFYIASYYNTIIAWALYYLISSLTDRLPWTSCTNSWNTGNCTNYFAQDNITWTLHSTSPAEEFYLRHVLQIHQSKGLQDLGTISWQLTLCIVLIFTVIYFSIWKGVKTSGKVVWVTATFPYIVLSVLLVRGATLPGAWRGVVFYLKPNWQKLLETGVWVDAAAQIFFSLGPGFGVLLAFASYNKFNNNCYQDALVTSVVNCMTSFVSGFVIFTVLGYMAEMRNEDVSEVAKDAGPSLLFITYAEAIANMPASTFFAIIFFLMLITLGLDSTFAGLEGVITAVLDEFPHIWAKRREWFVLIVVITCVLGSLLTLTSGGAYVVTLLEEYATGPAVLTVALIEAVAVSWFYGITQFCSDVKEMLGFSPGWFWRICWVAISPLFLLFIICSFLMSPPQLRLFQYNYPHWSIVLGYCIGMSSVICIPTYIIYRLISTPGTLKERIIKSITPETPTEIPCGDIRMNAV

Chain of Norepinephrine transporter (Q9WTR4 whole entry): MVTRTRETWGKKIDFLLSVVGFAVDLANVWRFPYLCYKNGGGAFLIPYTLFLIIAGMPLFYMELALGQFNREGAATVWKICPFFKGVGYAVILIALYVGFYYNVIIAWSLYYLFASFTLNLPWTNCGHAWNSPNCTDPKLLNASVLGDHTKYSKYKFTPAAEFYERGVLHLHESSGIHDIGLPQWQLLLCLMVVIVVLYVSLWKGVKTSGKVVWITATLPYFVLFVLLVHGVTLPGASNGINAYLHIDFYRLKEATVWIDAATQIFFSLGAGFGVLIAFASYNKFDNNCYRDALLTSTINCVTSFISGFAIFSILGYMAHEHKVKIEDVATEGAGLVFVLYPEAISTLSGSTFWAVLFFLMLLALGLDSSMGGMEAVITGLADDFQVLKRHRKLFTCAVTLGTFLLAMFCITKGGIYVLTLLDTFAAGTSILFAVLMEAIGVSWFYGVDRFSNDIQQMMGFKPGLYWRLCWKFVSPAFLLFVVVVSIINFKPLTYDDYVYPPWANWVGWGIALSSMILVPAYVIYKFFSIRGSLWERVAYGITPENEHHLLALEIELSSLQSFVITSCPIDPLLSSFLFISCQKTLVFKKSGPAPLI
Chain of Sodium-dependent dopamine transporter (P23977 whole entry): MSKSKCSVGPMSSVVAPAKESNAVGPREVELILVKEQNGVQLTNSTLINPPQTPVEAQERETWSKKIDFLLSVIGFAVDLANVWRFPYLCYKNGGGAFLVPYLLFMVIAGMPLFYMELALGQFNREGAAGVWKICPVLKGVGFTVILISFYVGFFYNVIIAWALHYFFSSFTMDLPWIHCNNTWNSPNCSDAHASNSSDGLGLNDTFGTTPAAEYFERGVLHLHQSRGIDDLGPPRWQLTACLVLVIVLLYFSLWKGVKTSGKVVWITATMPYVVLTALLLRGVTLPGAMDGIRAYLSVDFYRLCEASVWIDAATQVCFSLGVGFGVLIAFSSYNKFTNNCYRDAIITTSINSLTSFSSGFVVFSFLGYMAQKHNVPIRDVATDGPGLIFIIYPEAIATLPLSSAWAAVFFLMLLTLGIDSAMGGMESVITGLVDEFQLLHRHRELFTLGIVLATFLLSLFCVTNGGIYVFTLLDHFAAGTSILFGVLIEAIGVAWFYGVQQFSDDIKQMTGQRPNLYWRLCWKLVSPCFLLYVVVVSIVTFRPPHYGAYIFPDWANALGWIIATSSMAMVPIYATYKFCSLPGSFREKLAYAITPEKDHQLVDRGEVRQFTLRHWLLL

SMILES | IC50 [1] [nM] | IC50 [2] [nM] | IC50 [3] [nM]
COC(=O)[C@@H]1C2CC[C@H](C[C@@H]1c1ccc(I)cc1)N2 | 0.69 | 7.54 | 0.36
CC(C)OC(=O)[C@@H]1C2CC[C@H](C[C@@H]1c1ccc(I)cc1)N2 | 1.06 | 132 | 3.59
COC(=O)C1C2CCC(C[C@@H]1OC(=O)c1ccccc1)N2 (stereo not given in full) | 206 | 139 | 127
CCc1ccc([C@H]2C[C@H]3CCC(C2C(=O)OC)N3C)cc1 (stereo not given in full) | 55 | 3910 | 28.4
COC(=O)[C@H]1[C@@H](c2ccc(F)cc2)C[C@H]2CC[C@H]1N2C |  | 834 | 
COC(=O)C1C2CCC(C[C@@H]1c1ccc(Cl)cc1)N2 (stereo not given in full) | 0.62 | 5.45 | 4.13
COC(=O)C1C2CCC(C[C@@H]1c1ccc(F)cc1)N2 (stereo not given in full) | 4.39 | 18.8 | 68.6
CC(C)OC(=O)C1C2CC[C@H](C[C@@H]1c1ccc(I)cc1)N2C (stereo not given in full) | 0.43 | 285 | 66.8
COC(=O)C1C2CC[C@H](C[C@@H]1c1ccc(I)cc1)N2C (stereo not given in full) |  | 36 | 4.21
COC(=O)C1C2CCC(C[C@@H]1c1ccccc1)N2 (stereo not given in full) | 30.8 | 84.5 | 156
CCc1ccc([C@H]2C[C@H]3CCC(N3)[C@H]2C(=O)OC)cc1 | 49.9 | 122 | 8.13
